The source of these data is patent publication US20240391926A1, “SPIROINDOLINONE COMPOUNDS AS Kv1.3 POTASSIUM SHAKER CHANNEL BLOCKERS” (D.E. Shaw Research, LLC, priority 2021, published 2024).

One experiment has as its target T1, Kv1.3 potassium channel (Homo sapiens, UniProt P22001).
T1 construct: expressed in transfected cells
As to the kind of experiment: Kv1.3 potassium channel blocker activity, automated whole-cell patch clamp (Patchliner) in CHO-K1 cells stably expressing Kv1.3. Format: cell-based. The following applies: 30 nM-100 μM. Summed up:
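Whole-cell automated patch clamp in CHO-K1 cells, pH 7.4 external/7.2 internal; 100 ms steps from −90 to +40 mV at 0.1 Hz, 20-pulse trains. Cumulative 30 nM–100 μM on one cell, ≤10 s per concentration; last-pulse current normalized to control, IC50 from Hill fit.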

Another experiment has as its target T2, hERG channel (Homo sapiens, UniProt Q12809).
T2 construct: expressed in transfected cells
Kind of experiment: hERG electrophysiology, automated whole-cell patch clamp (Patchliner) in CHO-K1 cells stably expressing hERG. It counts as cell-based. The following applies: 30 nM-100 μM. How it is done:
This assay is used to evaluate the disclosed compounds' inhibition activities against the hERG channel.
CHO-K1 cells stably expressing hERG were grown in Ham's F-12 Medium with glutamine containing 10% heat-inactivated FBS, 1% penicillin/streptomycin, hygromycin (100 μg/ml) and G418 (100 μg/ml). Cells were grown in culture flasks at 37° C. in a 5% CO2-humidified incubator.
The cells were bathed in an extracellular solution containing 140 mM NaCl, 4 mM KCl, 2 mM CaCl2), 1 mM MgCl2, 5 mM Glucose, 10 mM HEPES; pH adjusted to 7.4 with NaOH; 295-305 mOsm. The internal solution contained 50 mM KCl, 10 mM NaCl, 60 mM KF, 20 mM EGTA, 10 mM HEPES; pH adjusted to 7.2 with KOH; 285 mOsm. All compounds were dissolved in DMSO at 30 mM. Compound stock solutions were freshly diluted with external solution to concentrations of 30 nM, 100 nM, 300 nM, 1 μM, 3 μM, 10 μM, 30 μM and 100 μM. The highest content of DMSO (0.3%) was present in 100 μM.
The voltage protocol (see Table B) was designed to simulate voltage changes during a cardiac action potential with a 300 ms depolarization to +20 mV (analogous to the plateau phase of the cardiac action potential), a repolarization for 300 ms to −50 mV (inducing a tail current) and a final step to the holding potential of −80 mV. The pulse frequency was 0.3 Hz. Control (compound-free) and compound pulse trains for each compound concentration applied contained 70 pulses.
Whole-cell current recordings and compound application were enabled by means of an automated patch clamp platform Patchliner (Nanion). EPC 10 patch clamp amplifier (HEKA) along with Patchmaster software (HEKA Elektronik Dr. Schulze GmbH) was used for data acquisition. Data were sampled at 10 kHz without filtering. Increasing compound concentrations were applied consecutively to the same cell without washouts in between.
AUC and PEAK values were obtained with Patchmaster (HEKA Elektronik Dr. Schulze GmbH). To determine IC50 the last single pulse in the pulse train corresponding to a given compound concentration was used. Obtained AUC and PEAK values in the presence of compound were normalized to control values in the absence of compound. Using Origin (OridinLab), IC50 was derived from data fit to Hill equation: Icompound/Icontrol=(100−A)/(1+([compound]/IC50)nH)+A, where IC50 is the concentration at which current inhibition is half-maximal, [compound] is the applied compound concentration, A is the fraction of current that is not blocked and nH is the Hill coefficient.

T2 sequence (Q12809 whole entry): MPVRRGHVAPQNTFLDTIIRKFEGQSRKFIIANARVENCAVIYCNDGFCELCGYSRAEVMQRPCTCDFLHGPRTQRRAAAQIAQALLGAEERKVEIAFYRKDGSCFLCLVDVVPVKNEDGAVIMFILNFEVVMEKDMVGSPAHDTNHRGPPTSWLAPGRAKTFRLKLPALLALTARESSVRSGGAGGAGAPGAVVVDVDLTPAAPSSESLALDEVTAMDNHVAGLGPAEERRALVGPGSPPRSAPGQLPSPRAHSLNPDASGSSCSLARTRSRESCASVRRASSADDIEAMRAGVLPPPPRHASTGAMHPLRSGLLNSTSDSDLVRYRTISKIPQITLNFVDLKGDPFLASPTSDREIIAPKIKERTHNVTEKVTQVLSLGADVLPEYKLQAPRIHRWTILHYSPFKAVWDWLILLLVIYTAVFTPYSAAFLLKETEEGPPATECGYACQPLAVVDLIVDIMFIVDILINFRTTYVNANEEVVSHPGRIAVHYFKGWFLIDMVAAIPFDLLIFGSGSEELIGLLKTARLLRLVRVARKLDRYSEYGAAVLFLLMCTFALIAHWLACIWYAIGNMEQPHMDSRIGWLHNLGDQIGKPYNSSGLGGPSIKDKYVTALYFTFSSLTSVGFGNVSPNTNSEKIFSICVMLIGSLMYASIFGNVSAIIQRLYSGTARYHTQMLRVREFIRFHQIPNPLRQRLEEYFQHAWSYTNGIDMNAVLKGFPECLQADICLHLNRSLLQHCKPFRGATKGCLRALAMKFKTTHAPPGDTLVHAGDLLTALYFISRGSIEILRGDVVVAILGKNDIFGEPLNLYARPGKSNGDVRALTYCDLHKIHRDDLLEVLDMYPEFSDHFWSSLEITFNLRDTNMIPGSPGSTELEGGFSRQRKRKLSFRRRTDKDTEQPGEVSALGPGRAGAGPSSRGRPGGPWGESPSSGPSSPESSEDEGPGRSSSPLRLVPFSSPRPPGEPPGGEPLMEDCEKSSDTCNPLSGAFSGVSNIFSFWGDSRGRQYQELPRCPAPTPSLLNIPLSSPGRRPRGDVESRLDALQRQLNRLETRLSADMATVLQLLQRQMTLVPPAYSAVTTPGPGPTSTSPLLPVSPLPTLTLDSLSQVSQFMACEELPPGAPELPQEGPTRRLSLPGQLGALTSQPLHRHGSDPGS
T1 sequence (P22001 whole entry): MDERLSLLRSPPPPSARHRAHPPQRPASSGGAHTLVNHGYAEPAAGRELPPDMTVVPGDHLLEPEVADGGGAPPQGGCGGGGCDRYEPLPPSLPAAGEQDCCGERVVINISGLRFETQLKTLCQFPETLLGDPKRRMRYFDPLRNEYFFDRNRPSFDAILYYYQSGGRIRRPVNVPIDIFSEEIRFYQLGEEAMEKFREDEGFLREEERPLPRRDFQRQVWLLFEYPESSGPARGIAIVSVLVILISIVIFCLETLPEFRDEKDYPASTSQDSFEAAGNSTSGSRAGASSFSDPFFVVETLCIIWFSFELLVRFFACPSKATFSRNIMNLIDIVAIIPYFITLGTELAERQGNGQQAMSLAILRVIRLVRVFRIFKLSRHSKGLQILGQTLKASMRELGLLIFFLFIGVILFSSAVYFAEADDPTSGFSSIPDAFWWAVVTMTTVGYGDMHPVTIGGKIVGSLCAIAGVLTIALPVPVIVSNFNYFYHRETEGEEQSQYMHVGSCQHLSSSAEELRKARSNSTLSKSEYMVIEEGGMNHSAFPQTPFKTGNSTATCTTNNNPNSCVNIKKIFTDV

`O=C([C@H]1CC[C@H](O)C1)N1CC[C@]2(C1)C(=O)Nc1cc(Cl)c(Cl)cc12` (single isomer, unassigned; isomer 1) [Compound 63]: the IC50 against Kv1.3 potassium channel is less than 1 µM; at hERG channel, greater than 30 µM.
For `O=C([C@@H]1C[C@@H](O)[C@@H](O)C1)N1CC[C@]2(C1)C(=O)Nc1cc(Cl)c(Cl)cc12` [Compound 101, (3S)-5,6-dichloro-1′-[(1S,3R,4S)-3,4-dihydroxycyclopentanecarbonyl]-1H-spiro[indole-3,3′-pyrrolidin]-2-one], the values for the half-inhibitory concentration (IC50) at Kv1.3 potassium channel and against hERG channel were less than 0.3 µM and greater than 100 µM, respectively.
Taken in the same sequence, the figures for `C[C@H]1NCC[C@@H]1C(=O)N1CC[C@]2(C1)C(=O)Nc1cc(Cl)c(Cl)cc12` (relative stereo) [Compound 40, (S)-5,6-dichloro-1′-((2S,3R)-rel-2-methylpyrrolidine-3-carbonyl)spiro[indoline-3,3′-pyrrolidin]-2-one isomer 2] were less than 0.3 µM and greater than 100 µM.
On the same counts, the results for `O=C([C@H]1CNC[C@H]1O)N1CC[C@]2(C1)C(=O)Nc1cc(Cl)c(Cl)cc12` (single isomer, unassigned) [Compound 2] are less than 0.3 µM and greater than 100 µM.
Turning to `O=C(CCCO)N1CC[C@]2(C1)C(=O)Nc1cc(Cl)c(Cl)cc12` [Compound 56, (S)-5,6-dichloro-1′-(4-hydroxybutanoyl)spiro[indoline-3,3′-pyrrolidin]-2-one], the half-inhibitory concentration (IC50) was less than 3 µM against Kv1.3 potassium channel and greater than 100 µM on hERG channel.
In the case of `O=C(C[C@H]1CCNC1)N1CC[C@]2(C1)C(=O)Nc1cc(Cl)c(Cl)cc12` [Compound 62, (S)-5,6-dichloro-1′-(2-((R)-pyrrolidin-3-yl)acetyl)spiro[indoline-3,3′-pyrrolidin]-2-one], the IC50 on Kv1.3 potassium channel was less than 0.3 µM; on hERG channel, greater than 100 µM.
As to `O=C([C@H]1CN[C@H](CO)C1)N1CC[C@]2(C1)C(=O)Nc1cc(Cl)c(Cl)cc12` [Compound 114, (3S)-5,6-dichloro-1′-[(3R,5S)-5-(hydroxymethyl)pyrrolidine-3-carbonyl]-1H-spiro[indole-3,3′-pyrrolidin]-2-one], the half-maximal inhibitory concentration (IC50) is less than 0.3 µM against Kv1.3 potassium channel and greater than 100 µM on hERG channel.
For the compound `NCC(=O)N1CC[C@]2(C1)C(=O)Nc1cc(Cl)c(Cl)cc12` [Compound 5, (S)-5,6-dichloro-1′-glycylspiro[indoline-3,3′-pyrrolidin]-2-one], the half-inhibitory concentration (IC50) was less than 1 µM on Kv1.3 potassium channel and greater than 30 µM on hERG channel.
On the same counts, the results for `Cc1cc2c(cc1Cl)[C@]1(CCN(C(=O)CO)C1)C(=O)N2` [Compound 120, (S)-5-chloro-1′-(2-hydroxyacetyl)-6-methylspiro[indoline-3,3′-pyrrolidin]-2-one] are less than 3 µM and greater than 100 µM.
In the case of `COC[C@H]1C[C@H](C(=O)N2CC[C@]3(C2)C(=O)Nc2cc(Cl)c(Cl)cc23)CN1` [Compound 112, (S)-5,6-dichloro-1′-((3S,5R)-5-(methoxymethyl)pyrrolidine-3-carbonyl)spiro[indoline-3,3′-pyrrolidin]-2-one], the 50% inhibitory concentration (IC50) is less than 0.3 µM at Kv1.3 potassium channel and greater than 100 µM at hERG channel.
Turning to `O=C(CCO)N1CC[C@]2(C1)C(=O)Nc1cc(Cl)c(Cl)cc12` [Compound 156, (S)-5,6-dichloro-1′-(3-hydroxypropanoyl)spiro[indoline-3,3′-pyrrolidin]-2-one], the IC50 at Kv1.3 potassium channel is less than 1 µM.
For `CC(C)[C@H](N)C(=O)N1CC[C@]2(C1)C(=O)Nc1cc(Cl)c(Cl)cc12` [Compound 47, (S)-1′-(L-valyl)-5,6-dichlorospiro[indoline-3,3′-pyrrolidin]-2-one], the IC50 against Kv1.3 potassium channel is less than 3 µM.
The same measure, in the same setting: in the case of `O=C([C@@H]1CC[C@@](O)(CO)C1)N1CC[C@]2(C1)C(=O)Nc1cc(Cl)c(Cl)cc12` (single isomer, unassigned; isomer 2) [Compound 96] it was less than 3 µM; in that of `O=C([C@H]1CC[C@@H](O)C1)N1CC[C@]2(C1)C(=O)Nc1cc(Cl)c(Cl)cc12` (single isomer, unassigned; isomer 3) [Compound 65], less than 3 µM.
Still for that read-out and setting: in the case of `O=C(c1nnc[nH]1)N1CC[C@]2(C1)C(=O)Nc1cc(Cl)c(Cl)cc12` [Compound 136, (S)-5,6-dichloro-1′-(1H-1,2,4-triazole-3-carbonyl)spiro[indoline-3,3′-pyrrolidin]-2-one] it was less than 1 µM; in that of `O=C1Nc2cc(Cl)c(Cl)cc2[C@]12CCN(c1cn[nH]n1)C2` [Compound 146, (S)-5,6-dichloro-1′-(1H-1,2,3-triazol-4-yl)spiro[indoline-3,3′-pyrrolidin]-2-one], less than 3 µM.
Still for that read-out and setting: in the case of `O=C([C@@H]1CNCCO1)N1CC[C@]2(C1)C(=O)Nc1cc(Cl)c(Cl)cc12` [Compound 11, (S)-5,6-dichloro-1′-((S)-morpholine-2-carbonyl)spiro[indoline-3,3′-pyrrolidin]-2-one] it was less than 3 µM; in that of `Cn1nc(C(=O)N2CC[C@]3(C2)C(=O)Nc2cc(Cl)c(Cl)cc23)cc1N` [Compound 41, (S)-1′-(5-amino-1-methyl-1H-pyrazole-3-carbonyl)-5,6-dichlorospiro[indoline-3,3′-pyrrolidin]-2-one], less than 10 µM.
The compound `O=C(C1CC1O)N1CC[C@]2(C1)C(=O)Nc1cc(Cl)c(Cl)cc12` (stereo partly drawn) [Compound 158, (3S)-5,6-dichloro-1′-(2-hydroxycyclopropane-1-carbonyl)spiro[indoline-3,3′-pyrrolidin]-2-one] yielded a half-maximal inhibitory concentration (IC50) against Kv1.3 potassium channel of less than 3 µM.
On the same count and under the same terms, in the case of `O=C(N1CC[C@]2(C1)C(=O)Nc1cc(Cl)c(Cl)cc12)[C@@]1(F)CCCNC1` [Compound 48, (S)-5,6-dichloro-1′-((R)-3-fluoropiperidine-3-carbonyl)spiro[indoline-3,3′-pyrrolidin]-2-one] it was less than 1 µM; in that of `O=C(C[C@@H]1CCCN1)N1CC[C@]2(C1)C(=O)Nc1cc(Cl)c(Cl)cc12` [Compound 61, (S)-5,6-dichloro-1′-(2-((S)-pyrrolidin-2-yl)acetyl)spiro[indoline-3,3′-pyrrolidin]-2-one], less than 1 µM; in that of `Nc1ccc(C(=O)N2CC[C@]3(C2)C(=O)Nc2cc(Cl)c(Cl)cc23)cn1` [Compound 84, (S)-1′-(6-aminonicotinoyl)-5,6-dichlorospiro[indoline-3,3′-pyrrolidin]-2-one], less than 1 µM.
Same read-out and setting: in the case of `Nc1cc(N2CC[C@]3(C2)C(=O)Nc2cc(Cl)c(Cl)cc23)ncn1` [Compound 148, (S)-1′-(6-aminopyrimidin-4-yl)-5,6-dichlorospiro[indoline-3,3′-pyrrolidin]-2-one] it was less than 3 µM.
The same measure, in the same setting: in the case of `O=C([C@@H]1CC[C@H](O)[C@@H](O)C1)N1CC[C@]2(C1)C(=O)Nc1cc(Cl)c(Cl)cc12` (single isomer, unassigned; isomer 1) [Compound 103] it was less than 1 µM; in that of `O=C([C@@H]1[C@@H]2CN[C@H]1C2)N1CC[C@]2(C1)C(=O)Nc1cc(Cl)c(Cl)cc12` (single isomer, unassigned; isomer 2) [Compound 58], less than 1 µM; in that of `O=C([C@H]1CCCO1)N1CC[C@]2(C1)C(=O)Nc1cc(Cl)c(Cl)cc12` [Compound 20, (S)-5,6-dichloro-1′-((R)-tetrahydrofuran-2-carbonyl)spiro[indoline-3,3′-pyrrolidin]-2-one], less than 10 µM.
Consider `N[C@H](CO)C(=O)N1CC[C@]2(C1)C(=O)Nc1cc(Cl)c(Cl)cc12` [Compound 43, (S)-1′-(D-seryl)-5,6-dichlorospiro[indoline-3,3′-pyrrolidin]-2-one], for which the IC50 on Kv1.3 potassium channel is less than 1 µM.
Same read-out and setting: in the case of `C[C@H](O)C(=O)N1CC[C@]2(C1)C(=O)Nc1cc(Cl)c(Cl)cc12` [Compound 12, (S)-5,6-dichloro-1′-((S)-2-hydroxypropanoyl)spiro[indoline-3,3′-pyrrolidin]-2-one] it was less than 3 µM; in that of `O=C(c1cnn(CCO)c1)N1CC[C@]2(C1)C(=O)Nc1cc(Cl)c(Cl)cc12` [Compound 78, (S)-5,6-dichloro-1′-(1-(2-hydroxyethyl)-1H-pyrazole-4-carbonyl)spiro[indoline-3,3′-pyrrolidin]-2-one], less than 10 µM.
Same read-out and setting: in the case of `Cc1cc(Cl)cc2c1NC(=O)[C@@]21CCN(C(=O)CO)C1` [Compound 140, (S)-5-chloro-1′-(2-hydroxyacetyl)-7-methylspiro[indoline-3,3′-pyrrolidin]-2-one] it was less than 1 µM.
